In the supplement of paper PMC10307832:

Columns and labels:
Test in all cases: relative viability (nuclei count vs DMSO), 5 days (fraction); higher = more cells survive
NCI-H650 = system: NCI-H650
How it was run: (§1)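 Relative viability divides the nuclei count in treated wells by that in vehicle wells. Lung cancer cell lines were seeded in 1536-well plates, dosed by pin tool the next day, and fixed and stained after 5 days in one step with final 0.05% Triton X-100, 1% formaldehyde and 1 ug/ml Hoechst. Dosing was a single drug or a fixed anchor-drug dose plus five library-drug doses (not always all listed) in √10 steps, and values are medians of duplicate plates imaged at 4×.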

NCI-H522 = system: NCI-H522
How it was run: as §1

NCI-H727 = system: NCI-H727
How it was run: as §1

NCI-H596 = system: NCI-H596
How it was run: as §1

NCI-H1395 = system: NCI-H1395
How it was run: as §1

EMC-BAC-2 = system: EMC-BAC-2
How it was run: as §1

NCI-H23 = system: NCI-H23
How it was run: as §1

NCI-H2347 = system: NCI-H2347
How it was run: as §1

NCI-H2087 = system: NCI-H2087
How it was run: as §1

NCI-H2023 = system: NCI-H2023
How it was run: as §1

BEN = system: BEN
How it was run: as §1

NCI-H1993 = system: NCI-H1993
How it was run: as §1

NCI-H647 = system: NCI-H647
How it was run: as §1

HARA = system: HARA
How it was run: as §1

NCI-H838 = system: NCI-H838
How it was run: as §1

201T = system: 201T
How it was run: as §1

NCI-H441 = system: NCI-H441
How it was run: as §1

NCI-H1666 = system: NCI-H1666
How it was run: as §1

NCI-H2126 = system: NCI-H2126
How it was run: as §1

NCI-H2009 = system: NCI-H2009
How it was run: as §1

LOU-NH91 = system: LOU-NH91
How it was run: as §1

NCI-H3122 = system: NCI-H3122
How it was run: as §1

LCLC-103H = system: LCLC-103H
How it was run: as §1

## COc1cc(N2CCC(C(N)=O)CC2)ccc1Nc1nc(N)c(Cl)c(Nc2ccccc2S(=O)(=O)C(C)C)n1 [HG-5-88-01] + Cc1nc(Nc2ncc(C(=O)Nc3c(C)cccc3Cl)s2)cc(N2CCN(CCO)CC2)n1 [Dasatinib] (partner 0.075 µM)
NCI-H650; first compound 0.04 µM
  relative viability: 0.441
NCI-H650; first compound 0.1265 µM
  relative viability: 0.46
NCI-H650; first compound 0.4 µM
  relative viability: 0.378
NCI-H650; first compound 1.265 µM
  relative viability: 0.391
NCI-H650; first compound 4 µM
  relative viability: 0.304
NCI-H522; first compound 0.04 µM
  relative viability: 1.02
NCI-H522; first compound 0.1265 µM
  relative viability: 0.897
NCI-H522; first compound 0.4 µM
  relative viability: 0.813
NCI-H522; first compound 1.265 µM
  relative viability: 0.781
NCI-H522; first compound 4 µM
  relative viability: 0.849
NCI-H727; first compound 0.04 µM
  relative viability: 0.335
NCI-H727; first compound 0.1265 µM
  relative viability: 0.334
NCI-H727; first compound 0.4 µM
  relative viability: 0.282
NCI-H727; first compound 1.265 µM
  relative viability: 0.173
NCI-H727; first compound 4 µM
  relative viability: 0.217
NCI-H596; first compound 0.04 µM
  relative viability: 0.6
NCI-H596; first compound 0.1265 µM
  relative viability: 0.494
NCI-H596; first compound 0.4 µM
  relative viability: 0.544
NCI-H596; first compound 1.265 µM
  relative viability: 0.416
NCI-H596; first compound 4 µM
  relative viability: 0.288
NCI-H1395; first compound 0.04 µM
  relative viability: 0.416
NCI-H1395; first compound 0.1265 µM
  relative viability: 0.371
NCI-H1395; first compound 0.4 µM
  relative viability: 0.393
NCI-H1395; first compound 1.265 µM
  relative viability: 0.394
NCI-H1395; first compound 4 µM
  relative viability: 0.36
EMC-BAC-2; first compound 0.04 µM
  relative viability: 0.31
EMC-BAC-2; first compound 0.1265 µM
  relative viability: 0.343
EMC-BAC-2; first compound 0.4 µM
  relative viability: 0.217
EMC-BAC-2; first compound 1.265 µM
  relative viability: 0.243
EMC-BAC-2; first compound 4 µM
  relative viability: 0.218
NCI-H23; first compound 0.04 µM
  relative viability: 0.703
NCI-H23; first compound 0.1265 µM
  relative viability: 0.84
NCI-H23; first compound 0.4 µM
  relative viability: 0.51
NCI-H23; first compound 1.265 µM
  relative viability: 0.588
NCI-H23; first compound 4 µM
  relative viability: 0.265
NCI-H2347; first compound 0.04 µM
  relative viability: 0.267
NCI-H2347; first compound 0.1265 µM
  relative viability: 0.319
NCI-H2347; first compound 0.4 µM
  relative viability: 0.318
NCI-H2347; first compound 1.265 µM
  relative viability: 0.303
NCI-H2347; first compound 4 µM
  relative viability: 0.295
NCI-H2087; first compound 0.04 µM
  relative viability: 0.826
NCI-H2087; first compound 0.1265 µM
  relative viability: 0.787
NCI-H2087; first compound 0.4 µM
  relative viability: 0.601
NCI-H2087; first compound 1.265 µM
  relative viability: 0.389
NCI-H2087; first compound 4 µM
  relative viability: 0.167
NCI-H2023; first compound 0.04 µM
  relative viability: 0.646
NCI-H2023; first compound 0.1265 µM
  relative viability: 0.515
NCI-H2023; first compound 0.4 µM
  relative viability: 0.318
NCI-H2023; first compound 1.265 µM
  relative viability: 0.196
NCI-H2023; first compound 4 µM
  relative viability: 0.207
BEN; first compound 0.04 µM
  relative viability: 0.227
BEN; first compound 0.1265 µM
  relative viability: 0.337
BEN; first compound 0.4 µM
  relative viability: 0.291
BEN; first compound 1.265 µM
  relative viability: 0.319
BEN; first compound 4 µM
  relative viability: 0.26
NCI-H1993; first compound 0.04 µM
  relative viability: 0.633
NCI-H1993; first compound 0.1265 µM
  relative viability: 0.569
NCI-H1993; first compound 0.4 µM
  relative viability: 0.502
NCI-H1993; first compound 1.265 µM
  relative viability: 0.475
NCI-H1993; first compound 4 µM
  relative viability: 0.581
NCI-H647; first compound 0.04 µM
  relative viability: 0.162
NCI-H647; first compound 0.1265 µM
  relative viability: 0.216
NCI-H647; first compound 0.4 µM
  relative viability: 0.114
NCI-H647; first compound 1.265 µM
  relative viability: 0.0855
NCI-H647; first compound 4 µM
  relative viability: 0.112
HARA; first compound 0.04 µM
  relative viability: 0.25
HARA; first compound 0.1265 µM
  relative viability: 0.255
HARA; first compound 0.4 µM
  relative viability: 0.147
HARA; first compound 1.265 µM
  relative viability: 0.113
HARA; first compound 4 µM
  relative viability: 0.219
NCI-H838; first compound 0.04 µM
  relative viability: 0.266
NCI-H838; first compound 0.1265 µM
  relative viability: 0.279
NCI-H838; first compound 0.4 µM
  relative viability: 0.233
NCI-H838; first compound 1.265 µM
  relative viability: 0.251
NCI-H838; first compound 4 µM
  relative viability: 0.181
201T; first compound 0.04 µM
  relative viability: 0.616
201T; first compound 0.1265 µM
  relative viability: 0.56
201T; first compound 0.4 µM
  relative viability: 0.545
201T; first compound 1.265 µM
  relative viability: 0.512
201T; first compound 4 µM
  relative viability: 0.267
NCI-H441; first compound 0.04 µM
  relative viability: 0.601
NCI-H441; first compound 0.1265 µM
  relative viability: 0.625
NCI-H441; first compound 0.4 µM
  relative viability: 0.31
NCI-H441; first compound 1.265 µM
  relative viability: 0.314
NCI-H441; first compound 4 µM
  relative viability: 0.231
NCI-H1666; first compound 0.04 µM
  relative viability: 0.873
NCI-H1666; first compound 0.1265 µM
  relative viability: 0.837
NCI-H1666; first compound 0.4 µM
  relative viability: 0.643
NCI-H1666; first compound 1.265 µM
  relative viability: 0.539
NCI-H1666; first compound 4 µM
  relative viability: 0.389
NCI-H2126; first compound 0.04 µM
  relative viability: 0.617
NCI-H2126; first compound 0.1265 µM
  relative viability: 0.565
NCI-H2126; first compound 0.4 µM
  relative viability: 0.449
NCI-H2126; first compound 1.265 µM
  relative viability: 0.34
NCI-H2126; first compound 4 µM
  relative viability: 0.259
NCI-H2009; first compound 0.04 µM
  relative viability: 0.26
NCI-H2009; first compound 0.1265 µM
  relative viability: 0.251
NCI-H2009; first compound 0.4 µM
  relative viability: 0.161
NCI-H2009; first compound 1.265 µM
  relative viability: 0.141
NCI-H2009; first compound 4 µM
  relative viability: 0.156
LOU-NH91; first compound 0.04 µM
  relative viability: 0.57
LOU-NH91; first compound 0.1265 µM
  relative viability: 0.524
LOU-NH91; first compound 0.4 µM
  relative viability: 0.493
LOU-NH91; first compound 1.265 µM
  relative viability: 0.321
LOU-NH91; first compound 4 µM
  relative viability: 0.243
NCI-H3122; first compound 0.04 µM
  relative viability: 0.542
NCI-H3122; first compound 0.1265 µM
  relative viability: 0.209
NCI-H3122; first compound 0.4 µM
  relative viability: 0.149
NCI-H3122; first compound 1.265 µM
  relative viability: 0.161
NCI-H3122; first compound 4 µM
  relative viability: 0.109
LCLC-103H; first compound 0.04 µM
  relative viability: 0.522
LCLC-103H; first compound 0.1265 µM
  relative viability: 0.464
LCLC-103H; first compound 0.4 µM
  relative viability: 0.418
LCLC-103H; first compound 1.265 µM
  relative viability: 0.373
LCLC-103H; first compound 4 µM
  relative viability: 0.341
